Measurements published in PubChem BioAssay (NCI).
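Five concentrations, 48 hours, 96-well plates. TGI: concentration producing complete growth inhibition.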

What was measured:
Test in all cases: NCI tumour cell line growth inhibition, 48 h
[1] = test system: A498 renal
[2] = test system: A549 NSCLC
[3] = test system: CAKI-1 renal
[4] = test system: CCRF-CEM leukemia
[5] = test system: COLO 205 colon
[6] = test system: DLD-1 colon
[7] = test system: DMS 114 small cell lung
[8] = test system: DMS 273 small cell lung
[9] = test system: EKVX NSCLC
[10] = test system: HCC-2998 colon
[11] = test system: HCT-116 colon
[12] = test system: HCT-15 colon
[13] = test system: HL-60(TB) leukemia
[14] = test system: HOP-18 NSCLC
[15] = test system: HOP-62 NSCLC
[16] = test system: HOP-92 NSCLC
[17] = test system: HT29 colon
[18] = test system: IGROV1 ovarian
[19] = test system: K-562 leukemia
[20] = test system: KM12 colon
[21] = test system: KM20L2 colon
[22] = test system: LOX IMVI melanoma
[23] = test system: M19-MEL melanoma
[24] = test system: MALME-3M melanoma
[25] = test system: MCF7 breast
[26] = test system: MOLT-4 leukemia
[27] = test system: NCI-H226 lung
[28] = test system: NCI-H23 lung
[29] = test system: NCI-H460 lung
[30] = test system: NCI-H522 lung
[31] = test system: NCI/ADR-RES ovarian
[32] = test system: OVCAR-3 ovarian
[33] = test system: OVCAR-4 ovarian
[34] = test system: OVCAR-5 ovarian
[35] = test system: OVCAR-8 ovarian
[36] = test system: P388 leukemia
[37] = test system: P388/ADR leukemia
[38] = test system: RPMI-8226 leukemia
[39] = test system: RXF 393 renal
[40] = test system: SF-268 CNS
[41] = test system: SF-295 CNS
[42] = test system: SF-539 CNS
[43] = test system: SK-MEL-2 melanoma
[44] = test system: SK-MEL-28 melanoma
[45] = test system: SK-MEL-5 melanoma
[46] = test system: SK-OV-3 ovarian
[47] = test system: SN12C renal
[48] = test system: SN12K1 renal
[49] = test system: SNB-19 CNS
[50] = test system: SNB-75 CNS
[51] = test system: SNB-78 CNS
[52] = test system: SW-620 colon
[53] = test system: U251 CNS
[54] = test system: UACC-257 melanoma
[55] = test system: UACC-62 melanoma
[56] = test system: UO-31 renal
[57] = test system: XF 498 CNS

## CC(C)c1oc(=O)cc2c1C(O)C1OC(=O)C3(C)C(O)C4OC4C2(C)C13 (centres undefined)
[1]
  TGI: 1.41 µM
[2]
  TGI: 16.5 µM
[3]
  TGI: 9.39 µM
[4]
  TGI: 3.07 µM
[5]
  TGI: 4.18 µM
[6]
  TGI: 8.57 µM
[7]
  TGI: 6.31 µM
[8]
  TGI: 5.93 µM
[9]
  TGI: 9.84 µM
[10]
  TGI: 7.92 µM
[11]
  TGI: 9.99 µM
[12]
  TGI: 41.6 µM
[13]
  TGI: 1.22 µM
[14]
  TGI: 24.3 µM
[15]
  TGI: 9.27 µM
[16]
  TGI: 2.38 µM
[17]
  TGI: 11.1 µM
[18]
  TGI: 20.6 µM
[19]
  TGI: 6.63 µM
[20]
  TGI: 24.9 µM
[21]
  TGI: 12.8 µM
[22]
  TGI: 5.77 µM
[23]
  TGI: 7.75 µM
[24]
  TGI: 10 µM
[25]
  TGI: 5.23 µM
[26]
  TGI: 2.13 µM
[27]
  TGI: 19.3 µM
[28]
  TGI: 7.63 µM
[29]
  TGI: 9.73 µM
[30]
  TGI: 5.21 µM
[31]
  TGI: 96.9 µM
[32]
  TGI: 6.42 µM
[33]
  TGI: 12.4 µM
[34]
  TGI: 27.2 µM
[35]
  TGI: 10.6 µM
[36]
  TGI: 1.23 µM
[37]
  TGI: 16.6 µM
[38]
  TGI: 4.1 µM
[39]
  TGI: 6.8 µM
[40]
  TGI: 25 µM
[41]
  TGI: 12.8 µM
[42]
  TGI: 4.19 µM
[43]
  TGI: 7.71 µM
[44]
  TGI: 12.7 µM
[45]
  TGI: 1.77 µM
[46]
  TGI: 20.3 µM
[47]
  TGI: 7.05 µM
[48]
  TGI: 9.37 µM
[49]
  TGI: 4.41 µM
[50]
  TGI: 7.92 µM
[51]
  TGI: 52 µM
[52]
  TGI: 19 µM
[53]
  TGI: 25 µM
[54]
  TGI: 10.8 µM
[55]
  TGI: 7.44 µM
[56]
  TGI: 15.5 µM
[57]
  TGI: 1.95 µM

## Cc1cc(O)c2c(c1)C(=O)c1c(c(O)cc(O)c1-c1c(O)cc(O)c3c1C(=O)c1cc(C)cc(O)c1C3=O)C2=O
[1]
  TGI: 40.4 µM
[2]
  TGI: 65.9 µM
[3]
  TGI: 51.4 µM
[4]
  TGI: 48.3 µM
[5]
  TGI: > 71.7 µM
[6]
  TGI: 59.5 µM
[7]
  TGI: 63 µM
[8]
  TGI: 30.3 µM
[9]
  TGI: 34.9 µM
[10]
  TGI: 35.2 µM
[11]
  TGI: 33.7 µM
[12]
  TGI: 38 µM
[13]
  TGI: 18.6 µM
[14]
  TGI: 39.9 µM
[15]
  TGI: 32.3 µM
[16]
  TGI: 34.4 µM
[17]
  TGI: 45 µM
[18]
  TGI: 52.6 µM
[19]
  TGI: 55.6 µM
[20]
  TGI: 64.2 µM
[21]
  TGI: 52.2 µM
[22]
  TGI: 50.2 µM
[23]
  TGI: 59.4 µM
[24]
  TGI: 65.2 µM
[25]
  TGI: 48.8 µM
[26]
  TGI: 50.8 µM
[27]
  TGI: 50 µM
[28]
  TGI: 50.8 µM
[29]
  TGI: 55.3 µM
[30]
  TGI: 59 µM
[31]
  TGI: 152 µM
[32]
  TGI: 21.6 µM
[33]
  TGI: 26.9 µM
[34]
  TGI: 85 µM
[35]
  TGI: 47 µM
[36]
  TGI: 63 µM
[37]
  TGI: 99.8 µM
[38]
  TGI: 32.9 µM
[39]
  TGI: 76.5 µM
[40]
  TGI: 75.4 µM
[41]
  TGI: 38.3 µM
[42]
  TGI: 36.6 µM
[43]
  TGI: 40.7 µM
[44]
  TGI: 70.8 µM
[45]
  TGI: 30.6 µM
[46]
  TGI: 62.6 µM
[47]
  TGI: 41.2 µM
[48]
  TGI: 39.9 µM
[49]
  TGI: 12.4 µM
[50]
  TGI: 66.1 µM
[51]
  TGI: 105 µM
[52]
  TGI: 124 µM
[53]
  TGI: 46 µM
[54]
  TGI: 50 µM
[55]
  TGI: 25.4 µM
[56]
  TGI: 15.8 µM
[57]
  TGI: 53.4 µM
